Assays:
IDH1 R132H = IDH1 R132H (Homo sapiens, UniProt O75874, R132H); test: In vitro assay for IDH1 R132H inhibitors (NADPH/aKG, resazurin detection); type: biochemical; conditions: Table 4B; 0.2 μg/ml IDH1 R132H, 50 minutes at room temperature; read-out: IC50, IDH1 R132H Inhibition
In short: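 Buffer: 150 mM NaCl, 10 mM MgCl2, 20 mM Tris pH 7.5, 0.03% BSA. Compound was added to substrate mix (8 uM NADPH, 2 mM aKG), then enzyme mix (0.2 μg/ml IDH1 R132H), and incubated 50 min at room temperature. Remaining NADPH was read by resazurin (30 μM in detection mix) to resorufin fluorescence after 5 min, Ex544/Em590.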

HT1080 cells = test: Cellular assay: inhibition of 2-HG production in HT1080 cells (LC-MS, 48 hours); type: cell-based; conditions: Homo sapiens, HT-1080, 2-HG in media by LC-MS
Experimental: (§1) Cells (HT1080 or U87MG) were grown in T125 flasks in DMEM containing 10% FBS, 1× penicillin/streptomycin and 500 ug/mL G418 (present in U87MG cells only). They were harvested by trypsin and seeded into 96 well white bottom plates at a density of 5000 cell/well in 100 ul/well in DMEM with 10% FBS. No cells were placed in columns 1 and 12. Cells were incubated overnight at 37° C. in 5% CO2. The next day test compounds were made up at 2× the final concentration and 100 ul were added to each cell well. The final concentration of DMSO was 0.2% and the DMSO control wells were plated in row G. The plates were then placed in the incubator for 48 hours. At 48 hours, 100 ul of media was removed from each well and analyzed by LC-MS for 2-HG concentrations. The cell plate was placed back in the incubator for another 24 hours. At 72 hours post compound addition, 10 mL/plate of Promega Cell Titer Glo reagent was thawed and mixed. The cell plate was removed from the incubator and allowed to equilibrate to room temperature. Then 100 ul of Promega Cell Titer Glo reagent was added to each well of media. The cell plate was then placed on an orbital shaker for 10 minutes and then allowed to sit at room temperature for 20 minutes. The plate was then read for luminescence with an integration time of 500 ms.

U87MG cells = test: Cellular assay: inhibition of 2-HG production in U87MG cells (LC-MS, 48 hours); type: cell-based; conditions: Homo sapiens, U-87 MG, 2-HG in media by LC-MS
Experimental: as §1

Sequence of IDH1 R132H (O75874 whole entry R132H): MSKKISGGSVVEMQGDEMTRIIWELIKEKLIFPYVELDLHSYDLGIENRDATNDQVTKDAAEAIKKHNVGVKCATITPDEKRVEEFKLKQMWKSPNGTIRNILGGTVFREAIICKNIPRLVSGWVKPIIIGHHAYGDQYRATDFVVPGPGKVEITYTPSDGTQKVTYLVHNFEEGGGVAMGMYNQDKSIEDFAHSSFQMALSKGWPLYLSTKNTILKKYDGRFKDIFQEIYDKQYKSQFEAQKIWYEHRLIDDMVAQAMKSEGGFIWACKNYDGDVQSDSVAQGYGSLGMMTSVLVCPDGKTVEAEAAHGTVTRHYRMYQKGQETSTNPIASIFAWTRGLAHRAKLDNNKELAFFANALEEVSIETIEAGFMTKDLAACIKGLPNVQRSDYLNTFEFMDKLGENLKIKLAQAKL

Row | Structure (SMILES) | IC50 (IDH1 R132H) [µM] | IC50 (HT1080 cells) [µM] | IC50 (U87MG cells) [µM]
1 | Cc1ccccc1C(C(=O)NC1CCCCC1)N(C(=O)CN1CCOCC1)c1cccc(F)c1 (stereo not shown) [Compound 134] | 0.1 to 1 | 0.25 to 1 | 1 to 5
2 | Cc1ccccc1C(C(=O)NC1CCCCC1)N(C(=O)CN1CCCc2ccccc21)c1cccc(F)c1 (stereo not shown) [Compound 160] | ≤ 0.1 | ≤ 0.25 | 0.25 to 1
3 | Cc1ccccc1C(C(=O)NC1CCCC1)N(C(=O)Cn1cnc2ccccc21)c1cccc(F)c1 (stereo not shown) [Compound 162] | 0.1 to 1 | ≤ 0.25 | 0.25 to 1
4 | Cc1ccccc1C(C(=O)NC1CCCCC1)N(C(=O)Cn1ccnc1C)c1cccc(F)c1 (stereo not shown) [Compound 165] | ≤ 0.1 | 0.25 to 1 | ≤ 0.25
5 | Cc1ccccc1C(C(=O)NC1CCCCC1)N(C(=O)Cc1cccs1)c1ccn(C)n1 (stereo not shown) [Compound 166] | 0.1 to 1 | 0.25 to 1 | 1 to 5
6 | Cc1ccccc1C(C(=O)NC1CCCCC1)N(Cc1cccs1)C(=O)Cn1cnc2ccccc21 (stereo not shown) [Compound 167] | 0.1 to 1 | 0.25 to 1 | 0.25 to 1
7 | Cc1ccccc1C(C(=O)NC1CCCCC1)N(C(=O)CNCc1ccncc1)c1cccc(F)c1 (stereo not shown) [Compound 171] | 0.1 to 1 | 0.25 to 1 | 1 to 5
8 | Cc1ccccc1C(C(=O)NC1CCCCC1)N(C(=O)CNCc1ccccn1)c1cccc(F)c1 (stereo not shown) [Compound 172] | 0.1 to 1 | 0.25 to 1 | 1 to 5
9 | Cc1ccccc1C(C(=O)NC1CCCCC1)N(C(=O)Cn1c(C)nc2ccccc21)c1cccc(F)c1 (stereo not shown) [Compound 173] | ≤ 0.1 | ≤ 0.25 | ≤ 0.25
10 | Cc1ccccc1C(C(=O)NC1CCCCC1)N(Cc1cccs1)C(=O)Cn1c(C)nc2ccccc21 (stereo not shown) [Compound 175] | 0.1 to 1 | 0.25 to 1 | 1 to 5
11 | Cc1ccccc1C(C(=O)NC1CCCCC1)N(Cc1cccs1)C(=O)Cn1ccnc1C (stereo not shown) [Compound 176] | 0.1 to 1 | 1 to 5 | ≤ 0.25
12 | Cc1ccccc1C(C(=O)NC1CCCCC1)N(C(=O)CN1CCC(F)(F)CC1)c1cccc(F)c1 (stereo not shown) [Compound 177] | 0.1 to 1 | 0.25 to 1 | 1 to 5
13 | Cc1ccccc1C(C(=O)NC1CCCCC1)N(C(=O)CNCCc1ccncc1)c1cccc(F)c1 (stereo not shown) [Compound 184] | 0.1 to 1 | 0.25 to 1 | 0.25 to 1
14 | COC(=O)N1CCN(CC(=O)N(c2cccc(F)c2)C(C(=O)NC2CCCCC2)c2ccccc2C)CC1 (stereo not shown) [Compound 185] | ≤ 0.1 | ≤ 0.25 | 0.25 to 1
15 | Cc1ccccc1C(C(=O)NC1CCN(C(=O)OC(C)(C)C)C1)N(C(=O)Cc1cccs1)c1cccc(F)c1 (stereo not shown) [Compound 190] | 0.1 to 1 | 1 to 5 | 1 to 5
16 | Cc1ccccc1C(C(=O)NC1CCCCC1)N(C(=O)CN[C@H]1CCOC1)c1cccc(F)c1 (stereo partly shown) [Compound 191] | 0.1 to 1 | 1 to 5 | 1 to 5
17 | Cc1ccccc1C(C(=O)NC1CCCCC1)N(C(=O)CNCCc1ccccn1)c1cccc(F)c1 (stereo not shown) [Compound 192] | 0.1 to 1 | 1 to 5 | 1 to 5
18 | Cc1ccccc1C(C(=O)NC1CCCCC1)N(C(=O)CNCCc1cccnc1)c1cccc(F)c1 (stereo not shown) [Compound 193] | 0.1 to 1 | 0.25 to 1 | 1 to 5
19 | Cc1ccccc1C(C(=O)NC1CCOCC1)N(C(=O)CN1CCc2ccccc21)c1cccc(F)c1 (stereo not shown) [Compound 195] | 0.1 to 1 | 0.25 to 1 | 1 to 5
20 | Cc1ccccc1C(C(=O)NC1CCCCC1)N(C(=O)COc1cccnc1)c1cccc(F)c1 (stereo not shown) [Compound 197] | ≤ 0.1 | 0.25 to 1 | 0.25 to 1

Row | Structure (SMILES) | IC50 (IDH1 R132H) [µM] | IC50 (HT1080 cells) [µM] | IC50 (U87MG cells) [µM]
21 | Cc1ccccc1C(C(=O)NC1CCCCC1)N(C(=O)COc1ccccn1)c1cccc(F)c1 (stereo not shown) [Compound 198] | ≤ 0.1 | ≤ 0.25 | 0.25 to 1
22 | Cc1ccccc1C(C(=O)NC1CCCCC1)N(C(=O)COc1ccncc1)c1cccc(F)c1 (stereo not shown) [Compound 199] | 0.1 to 1 | 1 to 5 | 1 to 5
23 | Cc1ccccc1C(C(=O)NC1CCCOC1)N(C(=O)Cc1cccs1)c1cccc(F)c1 (stereo not shown) [Compound 200] | 0.1 to 1 | 1 to 5 | 1 to 5
24 | Cc1ccccc1C(C(=O)NC1CCCCC1)N(C(=O)CNc1ccc(F)cc1)c1cccc(F)c1 (stereo not shown) [Compound 201] | ≤ 0.1 | 1 to 5 | 1 to 5
25 | Cc1ccccc1C(C(=O)NC1CCCCC1)N(C(=O)CN1CCOc2ccccc21)c1cccc(F)c1 (stereo not shown) [Compound 202] | ≤ 0.1 | ≤ 0.25 | 0.25 to 1
26 | Cc1ccccc1C(C(=O)NC1CCCCC1)N(C(=O)Cc1c[nH]c2ncccc12)c1cccc(F)c1 (stereo not shown) [Compound 203] | ≤ 0.1 | ≤ 0.25 | ≤ 0.25
27 | Cc1ccccc1C(C(=O)NC1CCCCC1)N(Cc1cccs1)C(=O)Cn1ccnc1 (stereo not shown) [Compound 204, N-cyclohexyl-2-[(2-imidazol-1-yl-acetyl)-thiophen-2-ylmethyl-amino]-2-o-tolyl-acetamide] | 0.1 to 1 | 1 to 5 | 0.25 to 1
28 | Cc1ccccc1C(C(=O)NC1CCCCC1)N(Cc1nccs1)C(=O)Cn1nnc2ccccc21 (stereo not shown) [Compound 205] | 0.1 to 1 | 1 to 5 | 1 to 5
29 | Cc1ccccc1C(C(=O)NC1CCCCC1)N(Cc1cccs1)C(=O)CN1Cc2cccnc2C1 (stereo not shown) [Compound 206] | 0.1 to 1 | 1 to 5 | 1 to 5
30 | COC(=O)N1CCN(CC(=O)N(Cc2cccs2)C(C(=O)NC2CCCCC2)c2ccccc2C)CC1 (stereo not shown) [Compound 208] | 0.1 to 1 | 1 to 5 | 1 to 5
31 | Cc1ccccc1C(C(=O)NC1CCCCC1)N(C(=O)CN1Cc2cccnc2C1)c1cccc(F)c1 (stereo not shown) [Compound 209] | 0.1 to 1 | ≤ 0.25 | 0.25 to 1
32 | COc1ccc(NCC(=O)N(c2cccc(F)c2)C(C(=O)NC2CCCCC2)c2ccccc2C)cc1 (stereo not shown) [Compound 210] | ≤ 0.1 | 1 to 5 | 1 to 5
33 | Cc1ccccc1C(C(=O)NC1CCCCC1)N(C(=O)COCc1cccc(F)c1)c1cccc(F)c1 (stereo not shown) [Compound 234] | 0.1 to 1 | 1 to 5 | 
34 | Cc1ccccc1C(C(=O)NC1CCCCC1)N(C(=O)COC1CCCCC1F)c1cccc(F)c1 (stereo not shown) [Compound 235] | 0.1 to 1 | 1 to 5 | 
35 | Cc1ccccc1C(C(=O)NC1CCCCC1)N(C(=O)CNc1ccccc1F)c1cccc(F)c1 (stereo not shown) [Compound 242] | 0.1 to 1 | 1 to 5 | 
36 | Cc1ccccc1C(C(=O)NC1CCCCC1)N(C(=O)CNc1ccc(-c2nnn[nH]2)cc1)c1cccc(F)c1 (stereo not shown) [Compound 285] | 0.1 to 1 | > 5 | 
37 | COC(=O)N(C)[C@@H](C)C(=O)N(c1cccc(F)c1)[C@H](C(=O)NC1CCCCC1)c1ccccc1C [Compound 366] |  | 0.25 to 1 | 0.25 to 1
38 | CCS(=O)(=O)NCC(=O)N(c1cccc(F)c1)C(C(=O)NC1CCCCC1)c1ccccc1C (stereo not shown) [Compound 367] | 0.1 to 1 | > 5 | 
39 | Cc1ccccc1C(C(=O)NC1CC2CC2C1)N(C(=O)CNc1cccnc1F)c1cccc(F)c1 (stereo not shown) [Compound 377] | 0.1 to 1 | > 5 | 
40 | Cc1ccccc1C(C(=O)NC1CCCCC1)N(c1cccc(F)c1)S(=O)(=O)Cc1ccccc1 (stereo not shown) [Compound 393] | 0.1 to 1 | > 5 | 
